Assay results published in US9024041B2, “P38 MAP kinase inhibitors” (Respivert Ltd., priority 2010, dated 2015).
pEC50, pIC50: −log10 of the molar value. “Also recorded” adds a separate entry of the source. Marks after values point to notes of the source that are not given here.

What was measured:
[1] = target: T1, Recombinant, phosphorylated p38 MAPKγ (MAPK12:Invitrogen) (Homo sapiens, UniProt P53778); test: p38 MAPKγ enzyme inhibition assay (FRET, Z-LYTE); format: biochemical; details: 2 hr pre-incubation, ATP 100 μM; read-out: Enzyme Inhibition IC50 p38γ
T1 construct: purchased Invitrogen
T1 sequence (P53778 1-367): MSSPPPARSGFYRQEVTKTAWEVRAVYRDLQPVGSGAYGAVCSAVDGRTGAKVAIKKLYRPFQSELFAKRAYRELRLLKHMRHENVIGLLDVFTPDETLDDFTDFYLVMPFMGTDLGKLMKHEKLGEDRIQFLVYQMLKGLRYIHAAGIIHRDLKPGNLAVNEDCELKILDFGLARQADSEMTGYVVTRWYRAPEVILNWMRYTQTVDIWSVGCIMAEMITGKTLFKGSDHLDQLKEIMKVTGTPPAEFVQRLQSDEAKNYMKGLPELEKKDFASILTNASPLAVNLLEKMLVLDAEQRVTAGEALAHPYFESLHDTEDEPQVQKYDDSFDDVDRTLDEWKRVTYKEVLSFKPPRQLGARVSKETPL

[2] = tested on: LPS-induced TNFα release in THP-1 cells; test: LPS-induced TNFα release in THP-1 cells; format: cell-based; details: Homo sapiens, 3 μg/mL LPS, 4 hr
In short: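 Human monocytic cells were stimulated with 3 μg/mL E. coli LPS for 4 hr. Supernatant TNFα was measured by sandwich ELISA. Inhibition was taken relative to vehicle control, and IC50 derived from the concentration-response curve.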

[3] = tested on: Differentiated U937 cells; test: MTT assay: cell viability on exposure to test compounds; format: cell-based, human; details: percentage loss of cell viability vs vehicle; for MTT Assay (Viability) 4 h d-U937: 5% FCS; for MTT Assay (Viability) 24 h d-U937: 10% FCS
In short: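 Differentiated U937 cells were pre-incubated with compound for either 4 h in 5% FCS or 24 h in 10% FCS, then given MTT for 1 h. Formazan was dissolved in DMSO and read at 550 nm. Viability loss is expressed as % versus 0.5% DMSO vehicle, so an apparent gain appears as a negative value.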

[4] = tested on: LPS-induced neutrophil accumulation in Balb/c mice; test: LPS-induced neutrophil accumulation in mice; format: in vivo; details: for % inhibition of Influx / Neutrophil numbers in BAL / % inhibition (neutrophil numbers in BAL): 0.2 mg/mL intra tracheal; for inhibitory effects versus neutrophil accumulation into the BALF (in words): dosed 8 hr prior to LPS challenge
Description: LPS-Induced Neutrophil Accumulation in Mice
Non-fasted Balb/c mice were dosed by the intra tracheal route with either vehicle, or the test substance at the indicated times (within the range 2-12 hr) before stimulation of the inflammatory response by application of an LPS challenge. At T=0, mice were placed into an exposure chamber and exposed to LPS. After a further 8 hr the animals were anesthetized, their tracheas cannulated and BALF extracted by infusing and then withdrawing from their lungs 1.0 mL of PBS via the tracheal catheter. Total and differential white cell counts in the BALF samples were measured using a Neubaur haemocytometer. Cytospin smears of the BALF samples were prepared by centrifugation at 200 rpm for 5 min at RT and stained using a DiffQuik stain system (Dade Behring). Cells were counted using oil immersion microscopy.

[5] = target: T2, p38 MAPKα isoform (MAPK14: Invitrogen) (Homo sapiens, UniProt Q16539); test: p38 MAPKα enzyme inhibition assay (FRET, Z-LYTE, via MAPKAP-K2 activation); format: biochemical; details: 2 hr pre-incubation, ATP 10.0 μM; read-out: Enzyme Inhibition IC50 p38α
T2 construct: purchased Invitrogen
T2 sequence (Q16539 whole entry, canonical isoform): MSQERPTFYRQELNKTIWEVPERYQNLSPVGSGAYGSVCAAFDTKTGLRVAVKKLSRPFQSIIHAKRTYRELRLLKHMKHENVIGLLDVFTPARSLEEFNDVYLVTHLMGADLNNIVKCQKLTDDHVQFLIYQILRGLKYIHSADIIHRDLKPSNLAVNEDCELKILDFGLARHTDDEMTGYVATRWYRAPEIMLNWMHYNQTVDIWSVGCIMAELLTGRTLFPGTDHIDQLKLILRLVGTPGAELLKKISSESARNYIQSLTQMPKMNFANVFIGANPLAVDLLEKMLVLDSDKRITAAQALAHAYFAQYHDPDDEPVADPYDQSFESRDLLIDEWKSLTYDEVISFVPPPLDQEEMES
Description: The enzyme inhibitory activities of compounds disclosed herein were determined by fluorescence resonance energy transfer (FRET) using synthetic peptides labelled with both donor and acceptor fluorophores (Z-LYTE, Invitrogen Ltd., Paisley, UK). Recombinant, phosphorylated p38 MAPKγ (MAPK12:Invitrogen) was diluted in HEPES buffer, mixed with the test compound at the desired final concentrations and incubated for 2 hr at RT. The FRET peptide (2 μM) and ATP (100 μM) were added to the enzyme/compound mixture and incubated for 1 hr. Development reagent (protease) was added for 1 hr prior to detection in a fluorescence microplate reader (Varioskan® Flash, ThermoFisher Scientific). The site-specific protease cleaves non-phosphorylated peptide only and eliminates the FRET signal. Phosphorylation levels of each reaction were calculated using the ratio of coumarin emission (donor) over fluorescein emission (acceptor) for which high ratios indicate high phosphorylation and low ratios indicate low phosphorylation levels.
For the p38 MAPKα isoform (MAPK14: Invitrogen), enzyme activity was evaluated indirectly by determining the level of activation/phosphorylation of the down-stream molecule, MAPKAP-K2. The p38 MAPKα protein was mixed with the test compound for 2 hr at RT. […] Development reagent was then added and the mixture incubated for 1 hr before detection by fluorescence completed the assay protocol.

[6] = tested on: LPS-induced IL-8 release in d-U937 cells; test: LPS-induced IL-8 release in d-U937 cells; format: cell-based; details: Homo sapiens, dU937, 0.1 μg/mL LPS, 4 hr
In short: (§1)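 U937 cells differentiated with PMA (100 ng/mL, 48–72 hr), pre-incubated with compound 2 hr, then stimulated with 0.1 μg/mL E. coli O111:B4 LPS for 4 hr. Supernatant TNFα and IL-8 measured by sandwich ELISA; REC50 (TNFα) and IC50 (IL-8 inhibition vs vehicle) taken from concentration-response curves.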

[7] = tested on: Poly I:C-induced ICAM-1 expression in BEAS2B cells; test: Poly I:C-induced ICAM-1 induction in BEAS2B cells; format: cell-based; details: Homo sapiens, BEAS-2B, poly I:C 1 μg/mL, 18 hr, read-out: PolyI:C/ICAM1 IC50 BEAS2B
In short: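 Human bronchial epithelial BEAS2B cells were pre-incubated with compound for 2 h, then transfected with poly I:C at 1 μg/mL. Surface ICAM-1 was measured 18 h later by cell-based ELISA (OD450–655), normalised to crystal-violet cell number (OD595). IC50 was taken from the concentration–response curve against vehicle.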

[8] = tested on: LPS-induced TNFα release in d-U937 cells; test: LPS-induced TNFα release in d-U937 cells; format: cell-based; details: Homo sapiens, dU937, 4 h; read-out: LPS/TNFα REC50 d-U937
In short: as §1

Compound	pIC50 [1]	pIC50 [2]	MTT Assay (Viability) 4 h d-U937 ([3]; 1 μg/mL) [%]	MTT Assay (Viability) 24 h d-U937 ([3]; 1 μg/mL) [%]	% inhibition of Influx ([4]; 8 h pre-dose before LPS) [%]	Neutrophil numbers in BAL ([4]; 8 h pre-dose before LPS)	inhibitory effects versus neutrophil accumulation into the BALF (in words) [4]	pIC50 [5]	pIC50 [6]	pIC50 [7]	pEC50 [8]	MTT Assay (Viability) 4 h d-U937 ([3]; 10 μg/mL)	MTT Assay (Viability) 24 h d-U937 ([3]; 10 μg/mL)	% inhibition (neutrophil numbers in BAL) ([4]; 2 hr pre-dose before LPS) [%]	Neutrophil numbers in BAL ([4]; 2 hr pre-dose before LPS)	% inhibition (neutrophil numbers in BAL) ([4]; 12 h pre-dose before LPS) [%]	Neutrophil numbers in BAL ([4]; 12 h pre-dose before LPS)	inhibition of neutrophil accumulation into the BALF (in words) ([4]; administered 2 and 12 hr prior to LPS challenge)
CN(C)C(=O)Nc1cc(Oc2ccc(NC(=O)Nc3cc(C(C)(C)C)nn3-c3ccc(O)cc3)c3ccccc23)ccn1 [Example 34, 3-(4-(4-(3-(3-tert-butyl-1-(4-hydroxyphenyl)-1H-pyrazol-5-yl)ureido)naphthalen-1-yloxy)pyridin-2-yl)-1,1-dimethylurea]	7.05	8.82	−25.8	−43.4	14	12.0 ± 1.7 × 10^5/mL	inhibitory effects	8.70	8.72	8.36	–	–	–	–	–	–	–	–
COCC(=O)Nc1cc(Oc2ccc(NC(=O)Nc3cc(C(C)(C)C)nn3-c3ccc(OC)nc3)c3ccccc23)ccn1 [Example 16, N-(4-(4-(3-(3-tert-Butyl-1-(6-methoxypyridin-3-yl)-1H-pyrazol-5-yl)ureido)naphthalen-1-yloxy)pyridin-2-yl)-2-methoxyacetamide]	7.27	8.92	−16.7	−6.2	55	6.3 ± 1.2 × 10^5/mL	inhibitory effects; also recorded: particularly marked	8.35	7.53	8.09	8.92	–	–	–	–	–	–	–
CC(C)(C)c1cc(NC(=O)Nc2ccc(Oc3ccnc(NC(N)=O)c3)c3ccccc23)n(-c2ccc(S(C)(=O)=O)cc2)n1 [Example 45, 1-(3-tert-butyl-1-(4-(methylsulfonyl)phenyl)-1H-pyrazol-5-yl)-3-(4-((2-ureidopyridin-4-yl)oxy)naphthalen-1-yl)urea]	7.31	8.66	−14.4	13.9	24	13.2 ± 2.2 × 10^5/mL	inhibitory effects	7.72	9.30	7.51	9.52	–	–	–	–	–	–	–
CCNC(=O)Nc1cc(C(=O)c2ccc(NC(=O)Nc3cc(C(C)(C)C)nn3-c3ccc(C)cc3)c3ccccc23)ccn1 [Example 67, 1-(3-tert-butyl-1-p-tolyl-1H-pyrazol-5-yl)-3-(4-(2-(3-ethylureido)isonicotinoyl)naphthalen-1-yl)urea]	6.35	8.19	–	–	–	–	–	7.73	7.66	7.86	7.75	−9.9^b %	8.8^b %	40	10.5 ± 1.5 × 10^5/ml	20	14.2 ± 1.7 × 10^5/ml	marked and long-lasting inhibition
COCC(=O)Nc1cc(Oc2ccc(NC(=O)Nc3cc(C(C)(C)C)nn3-c3ccc(CO)c(Cl)c3)c3ccccc23)ccn1 [Example 13, N-(4-(4-(3-(3-tert-Butyl-1-(3-chloro-4-(hydroxymethyl)phenyl)-1H-pyrazol-5-yl)ureido)naphthalen-1-yloxy)pyridin-2-yl)-2-methoxyacetamide]	6.77	8.89	−28.5	27.0	43	9.9 ± 1.2 × 10^5/mL	inhibitory effects; also recorded: particularly marked	7.97	8.07	8.64	10.52	–	–	–	–	–	–	–
CNC(=O)Nc1cc(COc2ccc(NC(=O)Nc3cc(C(C)(C)C)nn3-c3ccc(OC)cc3)c(C)c2C)ccn1 [Example 60, 1-(4-((4-(3-(3-tert-butyl-1-(4-methoxyphenyl)-1H-pyrazol-5-yl)ureido)-2,3-dimethylphenoxy)methyl)pyridin-2-yl)-3-methylurea]	< 4.76	6.91	17.2	−0.2	–	–	–	7.89	6.44	< 6.76	7.61	–	–	–	–	–	–	–
